{"source": "patent US8524493B2", "about": "“Released cytokeratins as markers for epithelial cells” (Centre Hospitalier Universitaire de Montpellier, priority 2006, dated 2013)", "system": "CK19 protein release by viable epithelial cells (cell lines)", "experiment": "CK19-EPISPOT assay with cycloheximide in cell-cultures", "format": "cell-based, human", "conditions": "cell lines incubated with 50 μg/mL cycloheximide during the incubation step of the EPISPOT assay", "method": "EPISPOT assays. Immobilon-P membrane 96-well plates (MAIPN450, Millipore Corporation, Bedford, Mass.) were coated overnight at 4° C. with the anti-CK19 mAb Ks19.1 (6 μg/mL) (Progen Biotechnik GMBH, Heidelberg, […].). Unbound mAb were removed by washing three times with PBS. The plates were then blocked with PBS supplemented with 5% FCS (Sigma, Chemical Co., Saint Louis, Mo.) for 1 h at room temperature and washed three times with PBS. To block protein synthesis, cell lines were incubated with 50 μg/mL of cycloheximide during the EPISPOT assay. Subsequently, viable cells were counted in a Kovac slide with trypan blue dye exclusion staining and finally plated in three replicate wells at different concentrations (1×10^5, 1×10^4, 1×10^3, 1×10^2, 10 and 1 cells). In addition, 5×10^4 to 1×10^5 of enriched CD45^− cells (i) from blood and bone marrow of colon and breast cancer patients, respectively, (ii) from the milk of healthy lactating women (normal primary mammary cells) or (iii) from normal and tumor colon tissues were seeded in different wells of the plates. […] Immunospots were counted by video camera imaging and computer assisted analysis (KS ELISPOT, Carl Zeiss Vision, Halbermoos, Germany). […]", "data": [{"smiles": "C[C@@H]1C[C@@H]([C@H](O)CC2CC(=O)NC(=O)C2)C(=O)[C@@H](C)C1", "note": "[cycloheximide]", "values": [{"measurement": "size and number of CK19 immunospots (CK19-releasing cells)", "value": "decrease in the size and the number of spots"}]}]}
